Tests used:
[1] = system: S. pneumoniae; test: Antibacterial activity, standard MIC assay modified by inclusion of cyclodextrin; type: cell-based; conditions: Streptococcus pneumoniae; some strains of S. pneumoniae
Procedure: (§1) Compounds of the present invention were assayed for antibacterial activity against a range of pathogenic organisms (strains of S aureus, Spneumoniae, Efaecalis, H influenzae and M catarrhalis) in a standard MIC assay modified by the inclusion of cyclodextrin, to assist with solubility.

[2] = system: S. aureus; test: as above; type: cell-based; conditions: Staphylococcus aureus; some strains of S. aureus
Procedure: as §1

[3] = system: E. faecalis; test: as above; type: cell-based; conditions: Enterococcus faecalis; some strains of E. faecalis
Procedure: as §1

[4] = system: M Catarrhalis; test: as above; type: cell-based; conditions: some strains of M Catarrhalis
Procedure: as §1

[5] = target: T1, S. aureus MRS (Staphylococcus aureus, UniProt Q5HII6); test: Enzyme inhibition (S. aureus MRS), aminoacylation assay; type: biochemical
T1 construct: made in house
Procedure: 1. Enzyme Inhibition (S. aureus MRS)—Aminoacylation Assay
Compounds of the present invention may be assayed for their ability to inhibit the enzyme methionyl tRNA synthetase (MRS), using recombinant S. aureus MRS, as follows:
The reaction is started by adding 20 μl appropriately diluted pure enzyme (pre-incubated with inhibitor) to 25 μl reaction mix for 10 min at room temperature. The reaction is terminated by the addition of 100 μl 5% trichloroacetic acid, 10% glycerol. The TCA precipitate is harvested onto dry Unifilter GFC plates using a Packard Filtermate Cell Harvester. The filters are washed with 4×200 μl of 50% industrial methylated spirit, before drying. 30 μl of Microscint 20 is added to each well and plates are counted on a TopCount. (Packard 96 well counter).
Mixed E. coli MRE 600 tRNA and ATP were purchased from Boehringer-Mannheim, L-[^35 S] methionine from Amersham and other reagents from Sigma.
Pure recombinant S. aureus MRS (EP application number 97300317.1, SmithKline Beecham) was obtained using standard purification procedures. The enzyme is diluted in Dilution Buffer which consists of 10 mM Tris/Cl, 2 mM DTT pH 7.9.

[6] = system: H. influenzae; test: Antibacterial activity, standard MIC assay modified by inclusion of cyclodextrin; type: cell-based
Procedure: as §1

T1 sequence (Q5HII6 whole entry): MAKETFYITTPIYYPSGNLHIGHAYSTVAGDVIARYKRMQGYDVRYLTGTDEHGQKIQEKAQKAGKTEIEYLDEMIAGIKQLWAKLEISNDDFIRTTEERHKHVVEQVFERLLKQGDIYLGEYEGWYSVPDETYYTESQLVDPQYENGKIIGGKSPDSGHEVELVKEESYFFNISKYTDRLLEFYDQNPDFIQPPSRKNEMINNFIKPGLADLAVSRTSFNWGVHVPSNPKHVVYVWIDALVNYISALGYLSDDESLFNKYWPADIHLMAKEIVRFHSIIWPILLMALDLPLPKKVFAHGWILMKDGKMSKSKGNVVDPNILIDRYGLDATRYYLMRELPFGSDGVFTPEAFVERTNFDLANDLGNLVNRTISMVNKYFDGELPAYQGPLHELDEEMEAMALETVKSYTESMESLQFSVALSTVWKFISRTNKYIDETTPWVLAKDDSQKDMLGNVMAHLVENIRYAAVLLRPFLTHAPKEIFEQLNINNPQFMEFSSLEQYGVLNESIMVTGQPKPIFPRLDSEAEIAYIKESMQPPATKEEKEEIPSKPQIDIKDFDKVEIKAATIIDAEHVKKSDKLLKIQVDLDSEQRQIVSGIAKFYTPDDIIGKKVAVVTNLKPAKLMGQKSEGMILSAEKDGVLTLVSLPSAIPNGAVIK

Compound	MIC [1] [µg/mL]	MIC [2] [µg/mL]	MIC [3] [µg/mL]	MIC [4] [µg/mL]	IC50 [5] [nM]	antibacterial activity against H. influenzae [6]
COc1cc(CNCCCNc2nn3nccc3[nH]2)c2[nH]cc(Cl)c2c1.Cl.Cl [Example 1, 2-[3-(3-Chloro-5-methoxy-1H-indol-7-ylmethylamino)propylamino]-1H-pyrazolo[1,5-b][1,2,4]triazole dihydrochloride]	< 32	< 32	< 32	< 32	< 10	
Cc1c(CNCCCNc2nn3nccc3[nH]2)sc(Br)c1Br.Cl.Cl [Example 2, 2-[3-(4,5-Dibromo-3-methylthien-2-ylmethylamino)propylamino]-1H-pyrazolo[1,5-b][1,2,4]triazole dihydrochloride]					< 10	active

— patent US20060287360A1, “Novel compounds” (REPLIDYNE, INC., priority 2003, published 2006)
